These results are taken from patent US20220017572A1, “GEMINOID LIPOPEPTIDE COMPOUNDS AND THEIR USES” (Erasmus University Medical Center Rotterdam, priority 2016, published 2022).

As usually defined, the pKi is the negative decadic logarithm of the Ki, by convention in mol/L.

pKi: −log10 of the molar value. Residues, ends and D or L forms follow the SMILES beside them.

In assay [1] the target is T1, dengue 2 protease (Dengue virus type 2, UniProt P14340).
T1 construct: The active site of the dengue protease is in the N-terminal part of NS3
The experiment in a line: Dengue 2 protease inhibition, hydrolysis of Z-RR-MCA. The class given is biochemical, dengue 2 virus. On the set-up: unit not given here. The settings on record: 10 μM Z-RR-MCA, pH 9.0, 37° C., initial activity in UAF/min.

Another assay has as its target T2, trypsin (Bos taurus, UniProt P00760).
T2 construct: gene PRSS1
T2 sequence (P00760 24-246): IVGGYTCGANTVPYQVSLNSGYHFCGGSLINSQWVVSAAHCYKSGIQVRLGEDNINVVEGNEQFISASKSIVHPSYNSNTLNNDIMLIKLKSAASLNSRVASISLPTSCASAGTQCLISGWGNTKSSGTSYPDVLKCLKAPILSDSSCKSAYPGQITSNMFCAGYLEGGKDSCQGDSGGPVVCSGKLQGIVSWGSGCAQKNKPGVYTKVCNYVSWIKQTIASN
The experiment in a line: Trypsin inhibition, fluorimetric enzyme assay. The class given is biochemical. The settings on record: for remaining activity at 15 µM: 15 μM inhibitor; for remaining activity at 15 µM / remaining activity at 40 µM / remaining activity at 80 µM / remaining activity at 18 µM / remaining activity at 55 µM / remaining activity at 85 µM: 36.5° C., read-out: Residual Activity (%) Trypsin; for remaining activity at 40 µM: 40 μM inhibitor; for remaining activity at 80 µM: 80 μM inhibitor; for remaining activity at 18 µM: 18 μM inhibitor; for remaining activity at 55 µM: 55 μM inhibitor; for remaining activity at 85 µM: 85 μM inhibitor. As to the method: (§1) The enzyme was dissolved in 1 mL MES buffer (10 mM), 1 mM CaCl2, pH 7.0 at 36.5° C. Substrate was added in a concentration 10 times the Km, and the inhibitor compounds of type C (C16-KGnK-C16, C16-KAnK-C16, and C16-RAnR-C16) were added in increasing concentrations (1.0, 5.0, 10.0, 20.0, 40.0 μL) from a stock solution of 2 mg in 1 mL DMSO. The residual activity was measured in a Hitachi F2500 spectrofluorimeter, and plots were fitted using the Grafit® software (Erithracus Software, Horley, Surrey, UK). All the assays were calculated by the Morrison equation for competitive inhibition (eq. 1, [Morrison, 1969]). The amount of substrate used for the tight binding titration experiments follow all the requirements, where [S]<<Km for all enzymes, so the Kiapp=Ki.
(§2) The first group of gemini-like peptide amphiphiles to be screened was that of C16-K(G or A)nK-C16 (compound type C, with R1=n-C15H31, R2=n-C16H33). […] The results of the Ki determination for trypsin, dengue 2 protease, and human furin are given in Table 1A; some general data for the inhibition by this type of compounds are given in Table 1B. For most compounds in Table 1 the Ki could be derived from competitive inhibition experiments. Judging from the Ki values with the relatively simple substrate Z-RR-MCA, the best inhibitors for dengue 2 protease contain alanine (A) rather than glycine (G).

The target of a further assay is human furin (Homo sapiens, UniProt P09958). The experiment in a line: Human furin inhibition, hydrolysis of Ac-RVRR-MCA. It is filed as biochemical. The following applies: for activity at 2.5 µM: 2.5 μM inhibitor; for activity at 5 µM: 5 μM inhibitor; for activity at 10 µM: 10 μM inhibitor; for activity at 15 µM: 15 μM inhibitor; for activity at 40 µM: 40 μM inhibitor; for pKi: 10 mM Mes.NaOH, pH 7.0, 2.35 μM Ac-RVRR-MCA, 37° C., read-out: Ki hFurin; for activity at 20 µM: 20 μM inhibitor. As to the method: as §1
However, for furin we used a correction of Ki app, where [S]˜Km (eq. 2).
Range of Proteases Inhibited by Geminoids, Determination of Ki with Z-RR-MCA (Dengue 2 Protease) and Ac-RVRR-MCA (Furin) (SEQ ID NO:60).

For assay [2], the target named is T1, dengue 2 protease. The experiment in a line: Dengue 2 protease inhibition, hydrolysis of Z-RR-MCA. It is filed as biochemical, dengue 2 virus. The settings on record: for activity at 2.5 µM: 2.5 μM inhibitor; for activity at 5 µM: 5 μM inhibitor; for activity at 10 µM: 10 μM inhibitor; for activity at 15 µM: 15 μM inhibitor; for activity at 40 µM: 40 μM inhibitor; for activity at 20 µM: 20 μM inhibitor.

The target in assay [3] is T1, dengue 2 protease. The experiment in a line: Dengue 2 protease inhibition in presence of Triton X-100 (detergent test, Nature Protocol). The following applies: 0.05% Triton X-100; for Activity with 0.05% Triton: initial activity in UAF/min. The class given is biochemical, dengue 2 virus. The source says: A further investigation of the interactions of the geminoid inhibitors with biological membranes and with membrane-bound proteases is needed. […] The preparation and tests of peptides symmetrically, asymmetrically and singly alkylated with saturated, short (C6), and unsaturated (C18:1) alkyl tails are in progress.

The target in another assay is thrombin (Homo sapiens, UniProt P00734). In words: Thrombin inhibition, fluorimetric enzyme assay. The class given is biochemical. The following applies: 36.5° C., read-out: Residual Activity (%) Thrombin; for remaining activity at 18 µM: 18 μM inhibitor; for remaining activity at 55 µM: 55 μM inhibitor; for remaining activity at 85 µM: 85 μM inhibitor. As for the experimental part: as §1, with “Kiapp=Ki. […]” for “Kiapp=Ki.”

The next assay addresses plasmin (Homo sapiens, UniProt P00747). In words: Plasmin inhibition, fluorimetric enzyme assay. The class given is biochemical. The settings on record: 36.5° C., read-out: Residual Activity (%) Plasmin. As to the method:
as §1, §2

plasmin, sequence (P00747 581-810 limits assumed, species assumed): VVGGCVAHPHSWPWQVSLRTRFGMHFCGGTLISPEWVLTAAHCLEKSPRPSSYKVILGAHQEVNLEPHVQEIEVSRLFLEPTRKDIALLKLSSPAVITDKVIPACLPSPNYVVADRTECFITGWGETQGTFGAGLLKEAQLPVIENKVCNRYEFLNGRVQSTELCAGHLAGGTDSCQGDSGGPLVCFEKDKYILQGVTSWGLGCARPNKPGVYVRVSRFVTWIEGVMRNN
plasmin, sequence (P00747 97-580 partner limits assumed, species assumed): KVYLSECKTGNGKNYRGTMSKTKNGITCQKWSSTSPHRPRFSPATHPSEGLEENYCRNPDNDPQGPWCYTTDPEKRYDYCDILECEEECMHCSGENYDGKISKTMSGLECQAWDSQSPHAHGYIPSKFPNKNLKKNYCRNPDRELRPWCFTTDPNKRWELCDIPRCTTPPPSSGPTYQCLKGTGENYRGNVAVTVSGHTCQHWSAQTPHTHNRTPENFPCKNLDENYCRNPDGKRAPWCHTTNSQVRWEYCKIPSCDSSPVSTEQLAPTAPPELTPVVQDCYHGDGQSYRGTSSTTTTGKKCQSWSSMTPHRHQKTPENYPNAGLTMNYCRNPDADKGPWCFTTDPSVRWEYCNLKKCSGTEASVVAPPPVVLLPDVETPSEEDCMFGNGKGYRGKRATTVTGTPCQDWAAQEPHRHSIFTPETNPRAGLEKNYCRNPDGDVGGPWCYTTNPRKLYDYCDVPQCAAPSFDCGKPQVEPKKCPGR
human furin, sequence (P09958 108-794): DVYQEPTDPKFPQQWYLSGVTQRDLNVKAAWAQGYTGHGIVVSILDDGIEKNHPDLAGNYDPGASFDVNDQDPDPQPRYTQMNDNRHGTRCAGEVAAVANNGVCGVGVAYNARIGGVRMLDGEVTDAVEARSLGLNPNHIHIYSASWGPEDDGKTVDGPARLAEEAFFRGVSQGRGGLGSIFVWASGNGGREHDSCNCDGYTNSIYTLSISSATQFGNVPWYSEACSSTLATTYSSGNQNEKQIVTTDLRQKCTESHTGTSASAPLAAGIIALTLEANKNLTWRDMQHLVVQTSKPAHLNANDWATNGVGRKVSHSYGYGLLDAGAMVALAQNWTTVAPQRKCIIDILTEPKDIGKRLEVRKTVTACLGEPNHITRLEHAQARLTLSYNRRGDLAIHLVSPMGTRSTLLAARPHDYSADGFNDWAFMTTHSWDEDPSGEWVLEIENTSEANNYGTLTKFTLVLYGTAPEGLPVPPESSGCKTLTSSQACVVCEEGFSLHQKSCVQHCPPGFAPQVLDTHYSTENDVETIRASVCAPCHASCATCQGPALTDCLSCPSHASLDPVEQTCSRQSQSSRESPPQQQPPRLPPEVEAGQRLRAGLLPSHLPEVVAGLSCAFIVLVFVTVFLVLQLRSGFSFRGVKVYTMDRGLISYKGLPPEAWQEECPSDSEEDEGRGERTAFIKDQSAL
T1 sequence (P14340 1476-1653): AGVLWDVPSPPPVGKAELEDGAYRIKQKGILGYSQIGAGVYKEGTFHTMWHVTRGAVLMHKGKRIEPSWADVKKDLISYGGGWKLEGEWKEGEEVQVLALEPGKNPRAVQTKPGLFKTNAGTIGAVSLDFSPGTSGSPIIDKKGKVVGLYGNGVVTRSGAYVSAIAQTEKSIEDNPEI

`CCCCCCCCCCCCCCCCNC(=O)[C@H](CCCCN)NC(=O)[C@H](C)NC(=O)[C@H](C)NC(=O)[C@H](C)NC(=O)[C@H](C)NC(=O)[C@H](CCCCN)NC(=O)CCCCCCCCCCCCCCC` [C16-KAAAAK-C16] (HELM PEPTIDE1{[CCCCCCCCCCCCCCCC(=O)[*:2]].K.A.A.A.A.K.[CCCCCCCCCCCCCCCCN[*:1]]}$$$$V2.0) registered an Activity with inhibitors at dengue 2 protease [1] (20 μM of inhibitor) of 47. For the same compound, on trypsin, the remaining activity at 15 µM came out at 73%, the remaining activity at 40 µM was found to be 35% and the remaining activity at 80 µM stood at 20%. On human furin (36.5° C.), this compound had an activity at 2.5 µM of 70%, an activity at 5 µM of 59%, an activity at 10 µM of 52% and an activity at 15 µM of 45%. On human furin (36.5° C.), this compound registered an activity at 40 µM of 0%. The negative logarithm of the Ki (pKi) at human furin is 5.76. This compound also showed a pKi on dengue 2 protease [2] of 5.62. On dengue 2 protease [2] (36.5° C.), this compound gave an activity at 2.5 µM of 94%, an activity at 5 µM of 90%, an activity at 10 µM of 85% and an activity at 15 µM of 79%. Moreover, the activity at 40 µM at dengue 2 protease [2] (36.5° C.) stood at 45%. In addition, at dengue 2 protease [3] (20 μM of inhibitor), the “% recovery in presence of Triton” value is listed as 67% and the “Activity with 0.05% Triton” value is recorded as 133.

Turning to `CCCCCCCCCCCCCCCCNC(=O)[C@H](CCCCN)NC(=O)[C@H](C)NC(=O)[C@H](C)NC(=O)[C@H](C)NC(=O)[C@H](CCCCN)NC(=O)CCCCCCCCCCCCCCC` [C16-KAAAK-C16] (HELM PEPTIDE1{[CCCCCCCCCCCCCCCC(=O)[*:2]].K.A.A.A.K.[CCCCCCCCCCCCCCCCN[*:1]]}$$$$V2.0), at dengue 2 protease [1] (30 μM of inhibitor), the Activity with inhibitors is 0. Besides, at trypsin, the pKi is 4.39, the remaining activity at 15 µM was 79%, the remaining activity at 40 µM was found to be 54% and the remaining activity at 80 µM was found to be 40%. For the same compound, at human furin (36.5° C.), the activity at 2.5 µM is 73%, the activity at 5 µM amounted to 56%, the activity at 10 µM turned out to be 24% and the activity at 15 µM turned out to be 10%. The activity at 40 µM on human furin (36.5° C.) came out at 0%. Besides, the pKi on human furin is 5.76. Moreover, the pKi on dengue 2 protease [2] is 5.85. Moreover, on dengue 2 protease [2] (36.5° C.), the activity at 2.5 µM amounted to 91%, the activity at 5 µM came to 85%, the activity at 10 µM was 75% and the activity at 15 µM came out at 64%. Further, at dengue 2 protease [2] (36.5° C.), the activity at 40 µM was determined as 25%. Also, on dengue 2 protease [3] (30 μM of inhibitor), the “% recovery in presence of Triton” value was determined as 50% and the “Activity with 0.05% Triton” value worked out at 91.

`CCCCCCCCCCCCCCCCNC(=O)[C@H](CCCCN)NC(=O)CNC(=O)CNC(=O)CNC(=O)[C@H](CCCCN)NC(=O)CCCCCCCCCCCCCCC` [C16-KGGGK-C16, C15H31CO-KGGGK-NH—C16H33] (HELM PEPTIDE1{[CCCCCCCCCCCCCCCC(=O)[*:2]].K.G.G.G.K.[CCCCCCCCCCCCCCCCN[*:1]]}$$$$V2.0) gave an Activity with inhibitors on dengue 2 protease [1] (30 μM of inhibitor) of 40. On thrombin, the remaining activity at 18 µM is 81%, the remaining activity at 55 µM was 64% and the remaining activity at 85 µM was 45%. Also, at trypsin, the pKi is 4.95, the remaining activity at 18 µM is 84%, the remaining activity at 55 µM was found to be 56% and the remaining activity at 85 µM came out at 38%. At human furin (36.5° C.), the activity at 5 µM came to 68%, the activity at 10 µM worked out at 35%, the activity at 15 µM is 29% and the activity at 20 µM is 20%. In addition, the activity at 40 µM at human furin (36.5° C.) came to 0%. Besides, at dengue 2 protease [2], the pKi is 5.60. At dengue 2 protease [2] (36.5° C.), this compound had an activity at 5 µM of 86%, an activity at 10 µM of 80%, an activity at 15 µM of 74% and an activity at 20 µM of 65%. The compound also showed an activity at 40 µM at dengue 2 protease [2] (36.5° C.) of 51%. Moreover, on dengue 2 protease [3] (30 μM of inhibitor), the “% recovery in presence of Triton” value came out at 75% and the “Activity with 0.05% Triton” value is on record as 154.

On dengue 2 protease [1] (30 μM of inhibitor), `CCCCCCCCCCCCCCCCNC(=O)[C@H](CCCCN)NC(=O)[C@H](CCCCN)NC(=O)CCCCCCCCCCCCCCC` [C16-KK-C16, C15H31CO-KK-NH—C16H33] gave an Activity with inhibitors of 48. In addition, the remaining activity at 15 µM was found to be 39% on plasmin (15 μM inhibitor), 62% on thrombin (15 μM inhibitor) and 82% at trypsin. The remaining activity at 55 µM is 11% on plasmin (55 μM inhibitor), 48% on thrombin and 58% on trypsin. For the same compound, the remaining activity at 85 µM on plasmin (85 μM inhibitor) came out at 4%; at thrombin it was 37%; at trypsin, 43%. The figures for the pKi on trypsin and on dengue 2 protease [2] were 4.07 and 5.27, respectively. The activity at 20 µM was 10% at human furin (36.5° C.) and 58% on dengue 2 protease [2] (36.5° C.). Also, the activity at 50 µM on human furin (50 μM inhibitor, 36.5° C.) was 5%; on dengue 2 protease [2] (50 μM inhibitor, 36.5° C.), 37%. In addition, the activity at 100 µM at human furin (100 μM inhibitor, 36.5° C.) was 0%; on dengue 2 protease [2] (100 μM inhibitor, 36.5° C.) it was 7%. For the same compound, at dengue 2 protease [3] (30 μM of inhibitor), the “% recovery in presence of Triton” value is listed as 52%. For the same compound, the “Activity with 0.05% Triton” value on dengue 2 protease [3] (30 μM of inhibitor) is reported as 113.

For `CCCCCCCCCCCCCCCCNC(=O)[C@H](CCCCN)NC(=O)CNC(=O)CNC(=O)CNC(=O)CNC(=O)[C@H](CCCCN)NC(=O)CCCCCCCCCCCCCCC` [C16KG4KC16] (HELM PEPTIDE1{[CCCCCCCCCCCCCCCC(=O)[*:2]].K.G.G.G.G.K.[CCCCCCCCCCCCCCCCN[*:1]]}$$$$V2.0), the Activity with inhibitors at dengue 2 protease [1] (30 μM of inhibitor) is recorded as 0. Also, at thrombin, the remaining activity at 18 µM amounted to 88%, the remaining activity at 55 µM was 59% and the remaining activity at 85 µM was determined as 41%. For the same compound, on trypsin, the remaining activity at 18 µM amounted to 81%, the remaining activity at 55 µM came out at 67% and the remaining activity at 85 µM came out at 53%. For the same compound, at human furin (36.5° C.), the activity at 5 µM is 82%, the activity at 10 µM was 64%, the activity at 15 µM came to 54% and the activity at 20 µM stood at 23%. Besides, the activity at 40 µM at human furin (36.5° C.) is 0%. The compound further had a pKi at dengue 2 protease [2] of 5.86. In addition, at dengue 2 protease [2] (36.5° C.), the activity at 5 µM came out at 86%, the activity at 10 µM stood at 78%, the activity at 15 µM came to 70% and the activity at 20 µM was found to be 60%. This compound also yielded an activity at 40 µM on dengue 2 protease [2] (36.5° C.) of 45%. Also, on dengue 2 protease [3] (30 μM of inhibitor), the “% recovery in presence of Triton” value is recorded as 63% and the “Activity with 0.05% Triton” value is given as 125.
